Laboratory results from US9090897B2, “Production of IFN-lambda by conventional dendritic cells” (Bavarian Nordic A/S, priority 2009, dated 2015).
“Also recorded” adds a separate entry of the source.

Assays:
splenic CD8+ cDC = assay: In vitro stimulation of sorted splenic CD8+ cDCs, cytokines in supernatant (IFN-λ ELISA, IL-12p70 FlowCytomix); type: cell-based, mouse; conditions: 5×10^5/ml, IL-3 and GM-CSF, supernatants after 18 h
Source text: (§1) DC subsets were isolated from pooled mouse spleens as described (Vremec et al., 2007). Briefly, spleens were chopped, digested with collagenase (Worthington Biochemical) and DNase (Roche) at room temperature, and treated with EDTA. Low-density cells were enriched by density centrifugation; non-DC lineage cells were coated with mAbs (anti-CD3, KT3-1.1; anti-Thy-1, T24/31.7; anti Gr-1, 1A8; anti-CD19, ID3; anti-erythrocytes, TER119 and anti-NK cells, DX5) and depleted using anti-rat Ig magnetic beads (Qiagen). Dead cells were excluded by propidium iodide staining. cDC populations were sorted based on the expression of CD11c, CD45RA, CD4, CD8a and CD172a and pDCs were purified based on CD11c, CD45RA, and CD172a (all BD Biosciences) expression. Cell sorting was performed on a FACS Aria instrument (BD Biosciences).
(§2) Cells were stimulated in vitro with single TLR agonists or combinations thereof containing 10 μg/ml Pam3Cys (InvivoGen), 100 μg/ml poly IC (Axxora), 10 μg/ml LPS (E. coli; Sigma-Aldrich or Axxora), 10 μg/ml R848 (Axxora), 1 μM CpG-1668 or CpG-2216 (TIB-Molbiol), 1 μg/ml profilin of toxoplasma (Axxora). The recombinant cytokines mouse-IL-3, mouse-IL-4, rat-IFN-γ (PeproTech) and mouse-GM-CSF (Tebu-Bio) (10 ng/ml each) were added as indicated. The addition of IL-3 and GM-CSF was based on previous observations that GM-CSF promoted the production of IL-12p70 and that the combination of IL-3 and GM-CSF increased virus induced IFN-λ production in pDCs and cDCs (Hochrein et al., 2000; Hochrein et al., 2004). As source of a parapoxvirus Zylexis, which is used for veterinary purposes was purchased from a pharmacy. HSV-1, in replication deficient form known as disc HSV-1 (HSV-1d) was used as described (Hochrein et al., 2004). IFN-λ in supernatants was analyzed by ELISA and IL-12p70 was determined by FlowCytomix bead assay (Bender Medsystems) according to manufacturer's protocol.

FLDC-derived eCD8+ cDCs = assay: In vitro stimulation of sorted FLDC-derived eCD8+ cDCs, IFN-λ ELISA; type: cell-based, mouse
Method: FL bone marrow culture derived dendritic cells (FLDC) were prepared as described (Hochrein et al., 2004). pDCs and eCD8+ and eCD8^− cDC subsets were sorted based on the expression of CD11c, CD45R, CD11b, CD24, and CD172a or CD103 (all BD Biosciences).
as §2

splenic pDCs = assay: In vitro stimulation of sorted splenic pDCs, IFN-λ ELISA; type: cell-based, mouse; conditions: 5×10^5/ml, IL-3 and GM-CSF, 18 h
Source text: as §1
(§3) Cells were stimulated in vitro with single TLR agonists or combinations thereof containing 10 μg/ml Pam3Cys (InvivoGen), 100 μg/ml poly IC (Axxora), 10 μg/ml LPS (E. coli; Sigma-Aldrich or Axxora), 10 μg/ml R848 (Axxora), 1 μM CpG-1668 or CpG-2216 (TIB-Molbiol), 1 μg/ml profilin of toxoplasma (Axxora). […] IFN-λ in supernatants was analyzed by ELISA and IL-12p70 was determined by FlowCytomix bead assay (Bender Medsystems) according to manufacturer's protocol.

mice [1] = assay: In vivo challenge (i.v.), serum IFN-λ and IFN-α by ELISA; set-up: species or system mouse; conditions: 100 μg i.v.
eCD8α cDCs = assay: In vitro stimulation of FL expanded ex-vivo isolated splenic eCD8α cDCs, IFN-λ; type: cell-based, mouse; conditions: 5×10^5/ml, IL-3+GM-CSF+IL-4+IFN-γ, 100 μg/ml, 18 h
Method: (§4) FIG. 13 depicts that in vivo FL expanded CD8α+cDCs and eCD8α cDCs selectively produce IFN-λ to poly AU in vitro. Highly purified FL expanded ex-vivo isolated splenic 5×10^5/ml were stimulated in the presence of IL-3+GM-CSF+IL-4+IFN-γ with either poly IC (100 μg/ml) or poly AU (100 μg/ml). After 18 h supernatants were analyzed for IFN-λ.
(§5) To see if the IFN-λ production to poly AU seen in vivo would correspond with the same cells as in response to poly IC we enhanced the amount of DC in mice with FL treatment and sorted CD8α+ cDCs, eCD8α cDCs and CD11b+/CD172a+cDCs. Those cells were stimulated with poly IC or poly AU.

CD8-cDCs = assay: In vitro stimulation of sorted splenic CD8- cDCs, IFN-λ ELISA; type: cell-based, mouse; conditions: 5×10^5/ml, IL-3 and GM-CSF, 18 h
Source text: as §1, §3

splenocytes = assay: Spleen cell fractions separated after in vivo injection, cultured 18 h, IFN-λ in supernatant; set-up: species or system mouse; conditions: spleens 1.5-2 h after i.v. injection, magnetic bead separation, 18 h culture
Method: 1.5-2 h after i.v. injection of poly IC spleens were harvested and processed. Cell free supernatants were analyzed for IFN-λ after in vitro culture for 18 h. (A) 5×10^6 cells/ml total spleen cells or cells separated by density centrifugation into light density cells or heavy density cells. (B) total spleen cells 25×10^6 cells/ml of WT or CD11c-DTR-tg mice treated 2 days before with diphtheria toxin (DT). (C) Total spleen cells before separation or after magnetic bead separation into the denoted populations. The initial cell number of splenocytes added onto the column was 20×10^6. Without further counting each fraction was distributed into 2 wells with 200 μl medium/well. Bars represent the mean±SD of 2 independent experiments (A+C) or 1 experiment (B) using 2 mice per experiment.
Spleen cells 1.5 h after in vivo injection with DISC HSV-1 were separated with anti-CD45R and magnetic beads into positive and negative fractions. The CD45R negative fraction was further separated into cells positive or negative for CD8α. Separated cells were cultured in vitro for the next 18 h and cell-free supernatants were analyzed for IFN-λ.^˜ Bars represent the mean±SD of 2 independent experiments using one mouse per experiment.

mice [2] = assay: In vivo challenge (i.v.), serum IFN-λ and IFN-α by ELISA; set-up: species or system mouse; conditions: 100 μg i.v.; remark: listed apart in the source
Method: Mice were injected i.v. into the lateral tail vein with 100 μg poly IC (Axxora) and serum was collected 3-4 h after challenge. Sera were pre-diluted 1/5, […] was analyzed by ELISA as described (Hochrein et al., 2004). IFN-λ was determined by an IFN-λ3 (IL-28B) ELISA (R&D Systems).

CD8α+ cDCs = assay: In vitro stimulation of FL expanded ex-vivo isolated splenic CD8α+ cDCs, IFN-λ; type: cell-based, mouse; conditions: 5×10^5/ml, IL-3+GM-CSF+IL-4+IFN-γ, 100 μg/ml, 18 h
Method: as §4, §5

Polyinosinic:polycytidylic acid [poly IC]
IFN-λ production (splenic CD8+ cDC): major producers; also recorded: induced IFN-λ | IL-12p70 production (splenic CD8+ cDC): not IL-12p70 production | IFN-λ production (FLDC-derived eCD8+ cDCs; WT eCD8+ cDCs, 18 h): produced IFN-λ | IFN-λ production, dependence on Cardif, MyD88, TLR3 (FLDC-derived eCD8+ cDCs; eCD8+ cDCs generated from Cardif-, MyD88- or TLR3-KO mice): involvement of TLR3 but not Cardif or MyD88 | IFN-λ production (splenic pDCs): largely unable to participate in IFN-λ production | serum IFN-α (mice [1]; Cardif-KO mice, 3-4 h): complete abrogation of serum IFN-α | serum IFN-λ (mice [1]; Cardif-KO mice, 3-4 h): no effects on IFN-λ production | Serum levels of IFN-α (mice [1]; FL-KO mice, 3-4 h): remained easily detectable | systemic production of IFN-α (mice [1]; IFN-AR-KO vs WT mice, 3-4 h): largely dependent on the presence of IFN-AR | systemic production of IFN-λ (mice [1]; IFN-AR-KO vs WT mice, 3-4 h): largely dependent on the presence of IFN-AR | serum IFN-α (mice [1]; IRF7-KO mice, 3-4 h): almost abrogated | serum IFN-α (mice [1]; MyD88-KO mice, 3-4 h): Large amounts | serum IFN-λ (mice [1]; MyD88-KO mice, 3-4 h): Large amounts | serum IFN-α (mice [1]; TLR3-KO mice, 3-4 h): no effect on the production of IFN-α | Serum levels of IFN-α (mice [1]; WT mice, sera after 3-4 h): easily detectable; also recorded: Large amounts | IFN-λ production (eCD8α cDCs): able to produce IFN-λ | IFN-λ production (CD8-cDCs): largely unable to participate in IFN-λ production | splenocyte fraction with which IFN-λ production separates (splenocytes): separates with CD45R−/CD11c+/CD8α+ splenocytes | serum IFN-λ, dependence on hematopoietic cells, FL and IRF8 (mice [2]; BM reconstituted, IL-15R-KO, RAG1-KO, FL-KO, IRF8-KO vs WT mice (FIG. 16), 3-4 h): depends on hematopoietic cells, FL and IRF8 | Serum levels of IFN-λ (mice [2]; FL-KO mice, 3-4 h): almost abrogated | serum IFN-λ (mice [2]; IRF7-KO mice, 3-4 h): largely reduced | serum IFN-λ (mice [2]; TLR3-KO mice, 3-4 h): abrogated IFN-λ production | Serum levels of IFN-λ (mice [2]; WT mice, sera after 3-4 h): easily detectable; also recorded: Large amounts | serum IFN-λ, dependence on IRF3 and IRF7 (mice [2]; mice of indicated genotype (FIG. 15), 3-4 h): depends on IRF3 and IRF7 | IFN-λ production (CD8α+ cDCs): able to produce IFN-λ
